What was measured:
[1] = system: human multiple myeloma ARP cells; assay: MTT assay in multiple myeloma ARP cells, alone or with Velcade; format: cell-based; details: 20 μM plus varying doses of Velcade, 48 h
Description: The cells were treated with Velcade™ alone or with 20 μM of compounds 5, 7 and 23 or in combination with varying doses of Velcade™ for 48 hrs, followed by a MTT assay.
Human multiple myeloma cells (Arp and Opm1) cells, kindly provided by Dr. Ramesh Batchu (Wayne State University), were grown in RPMI-1640 medium supplemented with 10% FBS, 100 units/ml of penicillin, and 100 μg/ml of streptomycin. Cells were maintained at 37° C. in 5% CO2 (Mujtaba T, et al., Int J Mol Med. (2012) 29(1):102-6).
(§1) Cells were grown in a 96-well plate. Triplicate wells of cells were treated with indicated concentrations of EGCG or EGCG analogs for 24 h. After aspiration of medium, MTT (1 mg/ml) was then added to the cell cultures, followed by incubation for 3 h at 37° C. After cells were crystallized, MTT was removed and DMSO was added to dissolve the metabolized MTT product. The absorbance was then measured on a Wallac Victor3 1420 Multi-label counter at 540 nm.

[2] = system: CD44high/CD24low cell population of MDA-MB-231 cells; assay: Flow cytometry of CD44high/CD24low cell population in MDA-MB-231 cells; format: cell-based, human; details: 48 h
Description: The MDA-MB-231 cells were treated with the indicated concentrations of compounds 23 and 30 for 48 hours, followed by flow cytometry analysis. Columns show mean of three experiments; bars, SD; **, p<0.01; *, p<0.1.
The treated cells were washed once with phosphate-buffered saline (PBS) and then harvested with Cell Dissociation Buffer (enzyme-free, Invitrogen, cat. #13150-016). Detached cells were washed with PBS containing 1% FCS (a wash buffer), and resuspended in the wash buffer (1,000 cells/100 μl). The cells were stained with combinations of fluorochrome-conjugated monoclonal antibodies obtained from BD Biosciences (San Diego, Calif.) against human CD44 (FITC; cat. #555478) and CD24 (PE; cat. #555428) or their respective isotype controls at concentrations recommended by the manufacturer and incubated at 4° C. in the dark for 30 to 40 min. The labeled cells were washed in the wash buffer, then fixed in PBS containing 1% paraformaldehyde, and then analyzed on a FACSVantage (BD Biosciences) (Sheridan et al. Breast Cancer Res. (2006) 8, R59).
The flow cytometry analysis was performed as follows: The treated cells were washed once with phosphate-buffered saline (PBS) and then harvested with Cell Dissociation Buffer (enzyme-free, Invitrogen, cat. #13150-016). Detached cells were washed with PBS containing 1% FCS (a wash buffer), and resuspended in the wash buffer (1,000 cells/100 μl). The cell were stained with combinations of fluorochrome-conjugated monoclonal antibodies obtained from BD Biosciences (San Diego, Calif., USA) against human CD44 (FITC; cat. #555478) and CD24 (PE; cat. #555428) or their respective isotype controls at concentrations recommended by the manufacturer and incubated at 4° C. in the dark for 30 to 40 min. The labeled cells were washed in the wash buffer, then fixed in PBS containing 1% paraformaldehyde, and then analyzed on a FACSVantage (BD Biosciences) (Sheridan et al., Breast Cancer Res., 2006, 8: R59).
Metformin could selectively target cancer stem cells and reduce the CD44high/CD24low cell population in TNBC cells through activation of AMPK signaling (Hirsch et al., Cancer Research, 2009, 69: 7507-7511). To determine whether EGCG analogs 23 and 30 can reduce the stem cell population in the breast cancer cells, the human breast cancer MDA-MB-231 cells were treated with different concentrations of compounds 23 and 30 for 48 hours. The treated cells were stained with special antibodies against human CD44 (FITC), CD24 (PE) or their respective isotype controls, followed by washing, fixing and analysed by flow cytometry.

[3] = system: Human breast cancer MDA-MB-231 cells; assay: MTT cell proliferation assay in MDA-MB-231 cells; format: cell-based; details: indicated concentrations, 24 h, MTT
Description: Human breast cancer MDA-MB-231 cells were treated with 25 or 50 μM EGCG analogs for 24 hours, followed by MTT assay. Pro-EGCG was used as a comparison.
Human breast cancer MDA-MB-231 cells with high COMT activity were treated with 50 μM EGCG analogs for 24 hours in the absence or presence of 10 μM DNC, followed by MTT assay. Pro-EGCG was used as a comparison.
(A) EGCG analogs 23 and 30 inhibited breast cancer cell proliferation. MDA-MB-231 cells were treated with indicated concentrations of 23, 30 or metformin for 24 h, followed by a MTT assay. *, P<0.1; **, P<0.01. Columns, mean of three experiments; bars, SD. (B) EGCG analogs 23 and 30 activated AMPK at a dose-dependent manner, measured by elevated level of phosphor-AMPKα and its downstream proteins of phosphor-Raptor. […] MDA-MB-231 cells were treated with indicated concentrations of 23 or 30 for 3 h, followed by Western blot analysis with the indicated antibodies. The numbers underneath the Western results of p-AMPKα indicated normalized phosphor-AMPKα/β-actin ratios. […]
as §1

[4] = molecular target: T1, proteasomal chymotrypsin-like activity of MDA-MB-231 cell extracts (Homo sapiens, UniProt P28074); assay: Proteasomal chymotrypsin-like activity in MDA-MB-231 cell lysate with high COMT activity; format: biochemical; details: 10 μM
T1 construct: endogenous in cells; host or cells: MDA-MB-231 human breast cancer cells (ATCC), cell extract
T1 sequence (P28074 60-263): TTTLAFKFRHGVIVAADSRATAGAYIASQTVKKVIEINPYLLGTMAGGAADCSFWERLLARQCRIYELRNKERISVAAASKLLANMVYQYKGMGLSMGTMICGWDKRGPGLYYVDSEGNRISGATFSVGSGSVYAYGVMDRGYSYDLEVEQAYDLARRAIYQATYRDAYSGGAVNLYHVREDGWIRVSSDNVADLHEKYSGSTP
Description: (A) MDA-MB-231 cell extracts (5.7 μg) were incubated with different concentrations of compound 5 or 7 or EGCG for 2 hours, followed by performance of proteasomal chymotrypsin-like activity assay. EGCG was used as a control. (B) MDA-MB-231 cell extracts (5.7 μg) were pre-treated with 10 μM DNC for 20 minutes, followed by co-incubation with compound 5, or 7 or EGCG for 2 h. The proteasomal chymotrypsin-like activity was measured.
Human breast cancer MDA-MB-231 cell lysate that contains high COMT activity were treated with varying concentrations of compound 5 or 7. […] Thus, consistent with previous reports EGCG is also susceptible to methylation by COMT (H., Lu, X. Meng, C. S. Yang, Drug Metabolism and Disposition; 31; 572, 2003).

Row | SMILES | effect on cell proliferation when combined with Velcade [1] | reduction of CD44high/CD24low cell population (in words) [2] | inhibition of cell proliferation (in words) [3] | decrease of the CD44high/CD24low population ([2]; 10 μM) [%] | decrease of the CD44high/CD24low population ([2]; 20 μM) [%] | inhibition at 10 µM [4] [%]
1 | O=C(O[C@H]1Cc2ccccc2C[C@H]1OC(=O)c1cc(O)c(Br)c(O)c1)c1cc(O)c(Br)c(O)c1 [Compound 23] | synergistic inhibitory effect | can reduce the CD44high/CD24low cell population | inhibit cell proliferation in a dose-dependent manner |  |  | 
2 | Nc1ccc(C(=O)O[C@H]2Cc3ccccc3C[C@H]2OC(=O)c2ccc(N)cc2)cc1 [Compound 30] |  | can reduce the CD44high/CD24low cell population | inhibit cell proliferation in a dose-dependent manner | 43.3 | 71.7 | 
3 | O=C(O[C@@H]1Cc2c(O)cc(O)cc2O[C@@H]1c1cc(O)c(O)c(O)c1)c1cc(O)c(O)c(O)c1 [Compound 1, (−)-Epigallocatechin gallate, reference compound] |  |  |  |  |  | ~22

— patent US20140378541A1, “Synthetic Epigallocatechin Gallate (EGCG) Analogs” (WAYNE STATE UNIVERSITY, priority 2011, published 2014)
